Assay results from patent US12441679B2, “Acrylamide-substituted indane compounds and therapeutic use thereof” (Sanofi, priority 2020, dated 2025).

system: YAP1-TEAD and TAZ-TEAD activity (TEAD responsive promoter element); test: TEAD-Luciferase Reporter Assay (8XGTIIC-Luciferase construct stably integrated in tumor cell lines); assay type: cell-based, human; details: 8XGTIIC-Luciferase reporter in tumor cell lines, 48 hrs compound treatment, 10 doses 1-10000 nM
Excerpt: TEAD-Luciferase Reporter Assay
Luciferase-based gene reporter assays were used, employing the TEAD responsive promoter element that are stably integrated to different human tumor cell lines in order to monitor YAP1-TEAD and TAZ-TEAD activity and to study YAP1/TAZ-TEAD activity modulation by small molecule compounds. Luciferase-based gene reporter assays employing the GAPDH promoter element and stably integrated to different human tumor cell lines are used as counter screen control cell lines.
Tumor cell lines with stable integration of the 8XGTIIC-Luciferase construct (Dupont et al., Nature 2011) or the GAPDH-Luciferase control plasmid, are seeded in culture medium in 96-well plates at a density of 8000 cells/well. Following an overnight incubation in a 37° C., 5% CO2 growth chamber, cells are treated with compounds described above at 10 doses ranging between 1 and 10000 nM for 48 hrs. After compound incubation, cells are lysed with Bright-Glo Luciferase Assay System (Promega E2620) and luciferase activity is measured using a luminescent plate reader.
The inhibitory activity of the compounds with respect to luciferase activity is given by the concentration which inhibits 50% of activity of non-treated cells. IC50s are determined with a nonlinear regression model on XLfit software analysis (IDBS, UK).

Question: For “(R)—N-(1-((3-(trifluoromethyl)phenyl)amino)-2,3-dihydro-1H-inden-5-yl)acrylamide [Example 2]”, which IC50 is on record?
Answer: 38 nM

Question: Which IC50 does the source give for “(S)—N-(1-((3-(trifluoromethyl)phenyl)amino)-2,3-dihydro-1H-inden-5-yl)acrylamide [Example 3]” here?
Answer: 109 nM

same assay, conditions: Homo sapiens; 8XGTIIC-Luciferase reporter in tumor cell lines, 48 hrs compound treatment, 10 doses 1-10000 nM

Question: For `C=CC(=O)N(C)c1ccc2c(c1)CCC2Oc1cccc(C(F)(F)F)c1` (centres unmarked) [Example 89, N-methyl-N-(1-(3-(trifluoromethyl)phenoxy)-2,3-dihydro-1H-inden-5-yl)acrylamide], which IC50 is on record?
Answer: 1060 nM

Question: `C=CC(=O)Nc1ccc2c(c1)CCC2N(C)c1ccc(C(F)(F)F)cc1` (centres unmarked) [Example 64, N-(1-(methyl(4-(trifluoromethyl)phenyl)amino)-2,3-dihydro-1H-inden-5-yl)acrylamide] was tested. Which IC50 did it give?
Answer: 806 nM

Question: How did the IC50 turn out when `C=CC(=O)Nc1ccc2c(c1)[C@@H](Oc1ccc(C(F)(F)F)cc1)CC2` (single isomer, unassigned) [Example 86] was run?
Answer: 134 nM

Question: `C=CC(=O)Nc1ccc2c(c1)[C@@H](Nc1cccc(C(F)(F)F)c1)[C@H](O)C2` (racemic) [Example 96, N-[rac-(2R,3R)-2-hydroxy-3-[3-(trifluoromethyl)anilino]-2,3-dihydro-1H-inden-5-yl]acrylamide] was tested. Which IC50 did it give?
Answer: 1980 nM

Question: For `C=CC(=O)Nc1ccc2c(c1)CCC2Nc1ccc(F)nc1` (centres unmarked) [Example 19, N-(1-((6-fluoropyridin-3-yl)amino)-2,3-dihydro-1H-inden-5-yl)acrylamide], which IC50 is on record?
Answer: 503 nM

Question: `C=CC(=O)Nc1ccc2c(c1)C(Oc1cc(F)cc(F)c1)CC2` (centres unmarked) [Example 43, N-(3-(3,5-difluorophenoxy)-2,3-dihydro-1H-inden-5-yl)acrylamide] was tested. Which IC50 did it give?
Answer: 140 nM

Question: Which IC50 does the source give for `C=CC(=O)Nc1ccc2c(c1)C(Nc1cccc(C(F)(F)F)c1)C(F)C2` (centres unmarked) [Example 91, N-(2-fluoro-3-((3-(trifluoromethyl)phenyl)amino)-2,3-dihydro-1H-inden-5-yl)acrylamide] here?
Answer: 209 nM

Question: How did the IC50 turn out when `C=CC(=O)Nc1ccc2c(c1)CC[C@@H]2Nc1ccc(C(F)(F)F)cc1` (single isomer, unassigned) [Example 56] was run?
Answer: 44 nM

Question: Which IC50 does the source give for `C=CC(=O)Nc1ccc2c(c1)C(Nc1ccc(C(F)(F)F)cc1)C(F)C2` (centres unmarked) [Example 90, N-[2-fluoro-3-[4-(trifluoromethyl)anilino]-2,3-dihydro-1H-inden-5-yl]acrylamide] here?
Answer: 84 nM

Question: `C=CC(=O)Nc1ccc2c(c1)[C@H](Oc1ccc(C(F)(F)F)cc1)CC2` (single isomer, unassigned) [Example 87] was tested. Which IC50 did it give?
Answer: 28 nM

Question: Which IC50 does the source give for `C=CC(=O)Nc1ccc2c(c1)CCC2Nc1cc(C(F)(F)F)ccn1` (centres unmarked) [Example 59, N-(1-((4-(trifluoromethyl)pyridin-2-yl)amino)-2,3-dihydro-1H-inden-5-yl)acrylamide 2,2,2-trifluoroacetate] here?
Answer: 60 nM

Question: For `C=CC(=O)N(C)c1ccc2c(c1)CCC2Nc1cccc(C(F)(F)F)c1` (centres unmarked) [Example 4, N-methyl-N-(1-((3-(trifluoromethyl)phenyl)amino)-2,3-dihydro-1H-inden-5-yl)acrylamide], which IC50 is on record?
Answer: 142 nM

Question: `C=CC(=O)Nc1ccc2c(c1)CCC2Oc1ccc(C(F)(F)F)cc1` (centres unmarked) [Example 82, N-(1-(4-(trifluoromethyl)phenoxy)-2,3-dihydro-1H-inden-5-yl)acrylamide] was tested. Which IC50 did it give?
Answer: 31 nM

Question: With `C=CC(=O)Nc1ccc2c(c1)C(C)(C)CC2Nc1ccc(C(F)(F)F)cc1` (centres unmarked) [Example 66, N-(3,3-dimethyl-1-((4-(trifluoromethyl)phenyl)amino)-2,3-dihydro-1H-inden-5-yl)acrylamide] as the compound, how does the IC50 read?
Answer: 863 nM

Question: With `C=CC(=O)Nc1ccc2c(c1)C(Oc1ccc(C(F)(F)F)cn1)CC2` (centres unmarked) [Example 88, N-[3-[[5-(trifluoromethyl)pyridin-2-yl]oxy]-2,3-dihydro-1H-inden-5-yl]acrylamide] as the compound, how does the IC50 read?
Answer: 51 nM

Question: With `C=CC(=O)N(C)c1ccc2c(c1)CCC2Nc1ccc(C(F)(F)F)cc1` (centres unmarked) [Example 69, N-methyl-N-(1-((4-(trifluoromethyl)phenyl)amino)-2,3-dihydro-1H-inden-5-yl)acrylamide] as the compound, how does the IC50 read?
Answer: 349 nM

Question: How did the IC50 turn out when `C=CC(=O)Nc1ccc2c(c1)C(Oc1cccc(C3CC3)c1)CC2` (centres unmarked) [Example 81, N-(3-(3-cyclopropylphenoxy)-2,3-dihydro-1H-inden-5-yl)acrylamide] was run?
Answer: 117 nM

Question: How did the IC50 turn out when `C=CC(=O)Nc1ccc2c(c1)C(Oc1cccc(Cl)c1)CC2` (centres unmarked) [Example 78, N-(3-(3-chlorophenoxy)-2,3-dihydro-1H-inden-5-yl)acrylamide] was run?
Answer: 52 nM

Question: With `C=CC(=O)Nc1ccc2c(c1)CC[C@@H]2Nc1cc(C(F)(F)F)ccn1` (single isomer, unassigned) [Example 57] as the compound, how does the IC50 read?
Answer: 134 nM

Question: How did the IC50 turn out when `C=CC(=O)Nc1ccc2c(c1)CCC2Nc1cccc(OC)c1` (centres unmarked) [Example 17, N-(1-((3-methoxyphenyl)amino)-2,3-dihydro-1H-inden-5-yl)acrylamide] was run?
Answer: > 10000 nM

Question: For `C=CC(=O)Nc1ccc2c(c1)C(NCc1ccccc1)CC2` (centres unmarked) [Example 23, N-(3-(benzylamino)-2,3-dihydro-1H-inden-5-yl)acrylamide], which IC50 is on record?
Answer: 9530 nM

Question: Which IC50 does the source give for `C=CC(=O)Nc1ccc2c(c1)C(OCCCC(F)(F)F)CC2` (centres unmarked) [Example 33, N-(3-(4,4,4-trifluorobutoxy)-2,3-dihydro-1H-inden-5-yl)acrylamide] here?
Answer: 170 nM

Question: Which IC50 does the source give for `C=CC(=O)Nc1ccc2c(c1)CC(NCCCC(F)(F)F)C2` (centres unmarked) [Example 29, N-(2-((4,4,4-trifluorobutyl)amino)-2,3-dihydro-1H-inden-5-yl)acrylamide] here?
Answer: > 10000 nM

Question: How did the IC50 turn out when `C=CC(=O)Nc1ccc2c(c1)C(OCCCC(F)F)CC2` (centres unmarked) [Example 73, N-(3-(4,4-difluorobutoxy)-2,3-dihydro-1H-inden-5-yl)acrylamide] was run?
Answer: 1310 nM

Question: `C=CC(=O)Nc1ccc2c(c1)CCC2Nc1cccc(C(F)(F)F)n1` (centres unmarked) [Example 60, N-(1-((6-(trifluoromethyl)pyridin-2-yl)amino)-2,3-dihydro-1H-inden-5-yl)acrylamide] was tested. Which IC50 did it give?
Answer: 346 nM

Question: With `C=CC(=O)Nc1ccc2c(c1)C(OCCCCF)CC2` (centres unmarked) [Example 34, N-(3-(4-fluorobutoxy)-2,3-dihydro-1H-inden-5-yl)acrylamide] as the compound, how does the IC50 read?
Answer: 2530 nM

Question: How did the IC50 turn out when `C=CC(=O)Nc1ccc2c(c1)C(Oc1ccc(C(F)(F)F)cc1)CC2` (centres unmarked) [Example 37, N-(3-(4-(trifluoromethyl)phenoxy)-2,3-dihydro-1H-inden-5-yl)acrylamide] was run?
Answer: 24 nM

Question: Which IC50 does the source give for `C=CC(=O)Nc1ccc2c(c1)C(Nc1cccc(F)c1)CC2` (centres unmarked) [Example 14, N-(3-((3-fluorophenyl)amino)-2,3-dihydro-1H-inden-5-yl)acrylamide] here?
Answer: 54 nM

Question: Which IC50 does the source give for `C=CC(=O)Nc1ccc2c(c1)C(Oc1ccc(F)cc1F)CC2` (centres unmarked) [Example 44, N-(3-(2,4-difluorophenoxy)-2,3-dihydro-1H-inden-5-yl)acrylamide] here?
Answer: 38 nM

Question: For `C=CC(=O)Nc1ccc2c(c1)CCC2NCc1cccc(C(F)(F)F)c1` (centres unmarked) [Example 24, N-(1-((3-(trifluoromethyl)benzyl)amino)-2,3-dihydro-1H-inden-5-yl)acrylamide], which IC50 is on record?
Answer: 8040 nM

Question: For `C=CC(=O)Nc1ccc2c(c1)C(Oc1cccc(SC)c1)CC2` (centres unmarked) [Example 80, N-(3-(3-(methylthio)phenoxy)-2,3-dihydro-1H-inden-5-yl)acrylamide], which IC50 is on record?
Answer: 300 nM

Question: For `C=CC(=O)Nc1ccc2c(c1)C(Nc1cccc(C(F)(F)F)c1)CC2` (centres unmarked) [Example 11, N-(3-((3-(trifluoromethyl)phenyl)amino)-2,3-dihydro-1H-inden-5-yl)acrylamide], which IC50 is on record?
Answer: 37 nM

Question: Which IC50 does the source give for `C=CC(=O)Nc1ccc2c(c1)CCC2Nc1cc(F)cc(F)c1` (centres unmarked) [Example 9, N-(1-((3,5-difluorophenyl)amino)-2,3-dihydro-1H-inden-5-yl)acrylamide] here?
Answer: 167 nM

Question: For `C=CC(=O)Nc1ccc2c(c1)CCC2N(C)c1cccc(C(F)(F)F)c1` (centres unmarked) [Example 62, N-(1-(methyl(3-(trifluoromethyl)phenyl)amino)-2,3-dihydro-1H-inden-5-yl)acrylamide], which IC50 is on record?
Answer: 70 nM

Question: Which IC50 does the source give for `C=CC(=O)Nc1ccc2c(c1)CC[C@H]2Nc1cc(C(F)(F)F)ccn1` (single isomer, unassigned) [Example 58] here?
Answer: 216 nM

Question: Which IC50 does the source give for `C=CC(=O)Nc1ccc2c(c1)C(Oc1cccc(C)c1)CC2` (centres unmarked) [Example 79, N-(3-(m-tolyloxy)-2,3-dihydro-1H-inden-5-yl)acrylamide] here?
Answer: 8670 nM

Question: For `C=CC(=O)Nc1ccc2c(c1)CCC2Nc1cccc(C(=O)OC)c1` (centres unmarked) [Example 22, methyl-3-((5-acrylamido-2,3-dihydro-1H-inden-1-yl)amino)benzoate], which IC50 is on record?
Answer: > 10000 nM

Question: `C=CC(=O)Nc1ccc2c(c1)CCC2Nc1ccc(F)cc1` (centres unmarked) [Example 5, N-(1-((4-fluorophenyl)amino)-2,3-dihydro-1H-inden-5-yl)acrylamide] was tested. Which IC50 did it give?
Answer: 29 nM

Question: How did the IC50 turn out when `C=CC(=O)N(C)c1ccc2c(c1)CCC2OC1CCC(C(F)(F)F)CC1` (centres unmarked) [Example 76, N-methyl-N-(1-((4-(trifluoromethyl)cyclohexyl)oxy)-2,3-dihydro-1H-inden-5-yl)acrylamide] was run?
Answer: 777 nM

Question: How did the IC50 turn out when `C=CC(=O)Nc1ccc2c(c1)CCC2Nc1ccc(F)cn1` (centres unmarked) [Example 21, N-(1-((5-fluoropyridin-2-yl)amino)-2,3-dihydro-1H-inden-5-yl)acrylamide] was run?
Answer: 262 nM

Question: How did the IC50 turn out when `C=CC(=O)Nc1ccc2c(c1)C(Oc1ccc(Cl)cc1)CC2` (centres unmarked) [Example 77, N-(3-(4-chlorophenoxy)-2,3-dihydro-1H-inden-5-yl)acrylamide] was run?
Answer: 56 nM

Question: For `C=CC(=O)Nc1ccc2c(c1)CC(N[C@H]1CC[C@@H](C(F)(F)F)CC1)C2` (relative stereo) [Example 26, N-(2-(((cis)-4-(trifluoromethyl)cyclohexyl)amino)-2,3-dihydro-1H-inden-5-yl)acrylamide], which IC50 is on record?
Answer: > 10000 nM
